# Source: article PMC8113290, “[^11C]MODAG-001—towards a PET tracer targeting α-synuclein aggregates” (European Journal of Nuclear Medicine and Molecular Imaging, 2020)
# Read-outs that look alike come from different tables or passages of the source. Marks after values point to notes of the source that are not given here.
# Experiments:
# αSYN and Aβ1–42 fibrils = test system: αSYN and Aβ1–42 fibrils; set-up: method as in PMID 29989823; conditions: similar rat model, despite good cerebral uptake and high Am ref 30; cited from earlier work
# recombinant αSYN fibrils = conditions: cited from earlier work
# [1] = Radio-metabolite analysis in mouse plasma and brain by radio-HPLC; assay type: in vivo; conditions: for M3 % / M3 %ID: metabolite 3; for M2* % / M2* %ID: mixture of various metabolites
# Protocol: For metabolite analysis, mice were i.v. injected with 91 ± 24 MBq of [^11C]MODAG-001 (n = 4 per time point) or 120 ± 41 MBq of (d3)-[^11C]MODAG-001 (n = 3 per time point) using a tail vein catheter. Five and 15 min after injection, plasma and brain homogenates were analyzed using radio-HPLC (for detailed information see supplemental material and methods section).
# A 400 µL blood sample was collected by heart puncture five or 15 minutes after tracer injection. The blood was centrifuged at 17,000 x g and 4 °C for two minutes, and the plasma was transferred to a 1.5 mL reaction tube on ice for further analysis. After blood collection, mice were transcardially perfused (10 mL/min) with 20 mL of ice-cold PBS, and the brain of each mouse was removed from the skull. The brain was transferred to a glass tube (2 mL Dounce tissue grinder set, Sigma Aldrich Chemie GmbH) containing 0.5 mL of ice-cold PBS, sequentially homogenized using large and small clearance pestles and transferred to a 1.5 mL reaction tube on ice for further analysis. Plasma or brain homogenate was mixed 1:1 with acetonitrile and briefly centrifuged. After two minutes of incubation on ice, each mixture was centrifuged at room temperature for 1.5 minutes at 12,000 x g (MiniSpin®, Eppendorf AG) to remove precipitated proteins. The supernatant was subjected to reversed-phase HPLC on a Luna Phenyl Hexyl column (5 µm, 100 Å, 300 mm x 4.6 mm, Phenomenex) equipped with a radioactivity detector with 0.1 % trifluoroacetic acid in water/acetonitrile (70:30) at an isocratic flow rate of 1.5 mL/min.
# For data analysis, the median of ten consecutive data points was calculated to remove noise; data were corrected for radioactive decay to time zero, defined as start of the HPLC of the five minute brain sample. This time zero radioactivity was plotted against time using Origin software (OriginLab Corporation, version 9.1G, Northampton, MA, USA). The area under the curve was calculated in % using the peak analyzer function and scaled up that the peaks add up to 100 %. The area under the curve was transformed into radioactivity values using a standard of [^11C]MODAG-001 with known radioactivity also corrected for decay and expressed as % injected radioactivity dose (%ID) per gram of brain tissue or per plasma in one mL of blood.
# [2] = In vivo PET imaging in mice (brain uptake); conditions: mouse, i.v. injection, one exemplary animal
# Protocol: PET imaging was performed on a dedicated small animal Inveon PET scanner (Siemens Healthcare, Knoxville (TN), USA). Mice and rats were anesthetized with 1.5–1.7% isoflurane evaporated in 100% oxygen at a flow rate of 0.8 L/min, which was maintained during the entire experiment. After a tail vein catheter was placed, the animal was positioned in the center of the field of view (FOV) on an MR-compatible PET bed that was connected to a feedback temperature control unit set to 37 °C. Mice were injected intravenously (i.v.) with 17 ± 2 MBq [^11C]MODAG-001 (n = 3) or 12 ± 1 MBq (d3)-[^11C]MODAG-001 (n = 5) 5 s after the start of the PET acquisition. […]
# Whole body mouse PET scans were coregistered to the whole body MR scan, which was sequentially acquired after the PET scan, and the volumes of interest (VOIs) of the lung, liver, heart, brain, and kidneys were drawn by hand based on the MR anatomical information using PMOD software (version 3.2; PMOD Technologies, Zürich, Switzerland). VOIs of different brain regions were extracted using the mouse or rat brain atlas provided by PMOD [10-12], and tissue time activity curves (TACs) were calculated and are expressed as standardized uptake values (SUVs), which were calculated as follows: SUV(t) = radioactivity concentration (kBq/mL of the organ)/(injected dose [kBq]/body weight [g]). […]
# [3] = biological target: T1, αSYN fibrils inoculated into the right striatum (Homo sapiens, UniProt P37840); assay: In vivo PET imaging in αSYN fibril-inoculated rats; set-up: species or system rat; conditions: for mean distribution volume ratio (DVR)-1 40-60min (binding potential): 4 days post inoculation
# T1 construct: made in house; host or cells: E. coli BL21(DE3)pLys
# Protocol: Rats were inoculated with αSYN fibrils (4 μL, 30 μM) into the right striatum (see supplementary material and methods section for a detailed description) and scanned 4 days post-inoculation with 23 ± 1 MBq of (d3)-[^11C]MODAG-001.
# Data acquisition, correction, framing and reconstruction, volume of interest (VOI) definition, and determination of binding parameters are described in detail in the supplementary material and methods section.
# Rats were allowed to adapt for two weeks in the animal facility before fibril injection. Three adult female rats were anaesthetized with an intraperitoneal (i.p.) injection of a mixture of fentanyl (0.005 mg/kg), midazolam (2 mg/kg), and medetomidine (0.15 mg/kg) at 1 mL/kg. The head of each rat was shaved, and the animal was placed into a stereotaxic frame. A central incision was made to expose the bregma and lambda. A 5 µL syringe needle (Hamilton Company, Reno (NV), USA) was enclosed with a glass capillary (inner diameter, 50 µm, Hilgenberg GmbH, Malsfeld, Germany). αSYN fibrils (4 µL, 30 µM) were injected using a stereotaxic injector (Stoelting, Wood Lane, IL, USA) through a drill hole into the right striatum (ML= -3.2 mm, AP = 0.0 mm, DV = -4.8 mm) according to the stereotaxic atlas of Paxinos and Watson [9][. Based on the volume of the right striatum (0.04 cm^3), the concentration of inoculated fibrils was calculated as 2.8 µM. As a negative control, 4 µL of vehicle (50 mM Tris base, 100 mM sodium chloride, 0.02 % sodium azide, pH 7.0) were injected into the contralateral striatum. A total fibril volume of 4 µL was obtained by the injection of 0.4 µL every 60 seconds. To allow for diffusion of the fibrils into the tissue, the needle was left in this position for five minutes. […]
# Whole body mouse PET scans were coregistered to the whole body MR scan, which was sequentially acquired after the PET scan, and the volumes of interest (VOIs) of the lung, liver, heart, brain, and kidneys were drawn by hand based on the MR anatomical information using PMOD software (version 3.2; PMOD Technologies, Zürich, Switzerland). VOIs of different brain regions were extracted using the mouse or rat brain atlas provided by PMOD [10-12], and tissue time activity curves (TACs) were calculated and are expressed as standardized uptake values (SUVs), which were calculated as follows: SUV(t) = radioactivity concentration (kBq/mL of the organ)/(injected dose [kBq]/body weight [g]). […] Distribution volume ratio 1 (DVR-1) values were calculated from individual TACs from 40 to 60 minutes, using the vehicle-injected striatum as a reference region, with the following formula: activity in fibril inoculated right striatum/activity in vehicle injected left striatum) - 1. […]
# [4] = mouse brain, 5 min after injection, parent compound
# [5] = mouse brain, 15 min after injection, parent compound
# [6] = mouse plasma, 5 min after injection, parent compound
# [7] = mouse plasma, 15 min after injection, parent compound
# [8] = mouse brain, 5 min after injection
# [9] = mouse brain, 15 min after injection, metabolite 1
# [10] = mouse brain, 15 min after injection
# [11] = mouse plasma, 5 min after injection, metabolite 1
# [12] = mouse plasma, 5 min after injection
# [13] = mouse plasma, 15 min after injection, metabolite 1
# [14] = mouse plasma, 15 min after injection
compound,measurement,setting,value
CN(c1ccc(/C=C/c2nc3ccccc3o2)cc1)S(=O)(=O)c1ccccc1[18F] [[^18F]2FBox],binding in vivo,αSYN and Aβ1–42 fibrils,no binding was observed in vivo
O=[N+]([O-])c1ccc2c(c1)Sc1cc(OC/C=C/I)ccc1N2 [[^125I]SIL23],Kd,recombinant αSYN fibrils; recombinant αSYN fibrils ref 24,148 nM
CN([11CH3])c1ccc(-c2cc(-c3ccnc(Br)c3)[nH]n2)cc1 [[^11C]MODAG-001],tissue uptake at 5 min,"[1]; intravenous, mouse brain, 5 min after injection, parent compound, read-out: P %ID",10.5 %ID/g
same,tissue uptake at 15 min,"[1]; intravenous, mouse brain, 15 min after injection, parent compound, read-out: P %ID",5.3 %ID/g
same,P %,[1]; [4],91%
same,P %ID,[1]; [4],10.5* %ID per g brain tissue
same,P %,[1]; [5],81%
same,P %ID,[1]; [5],5.3* %ID per g brain tissue
same,P %,[1]; [6],26%
same,P %ID,[1]; [6],0.8^# %ID per plasma in 1 mL blood
same,P %,[1]; [7],24%
same,P %ID,[1]; [7],0.7^# %ID per plasma in 1 mL blood
same,peak standardized uptake value (SUV) in brain,[2],1.4
CN(C)c1ncc(C=Cc2nc3ccc(OCCF)cc3o2)s1 [[^18F]BF-227],binding in vivo,αSYN and Aβ1–42 fibrils,no binding was observed in vivo
same,Kd,recombinant αSYN fibrils; recombinant αSYN fibrils ref 26,9.6 nM
[2H]C([2H])([2H])N([11CH3])c1ccc(-c2cc(-c3ccnc(Br)c3)[nH]n2)cc1 [(d3)-[^11C]MODAG-001],mean distribution volume ratio (DVR)-1 40-60min (binding potential),"[3]; 70% automatic isocontour VOI, contralateral side as reference",0.44 ± 0.21
same,peak SUV,[3]; left striatum of fibril-inoculated rats,2.1 ± 0.1
same,peak SUV,[3]; non-injected control rat,2.1
same,mean distribution volume ratio (DVR)-1 40-60min (binding potential),"[3]; whole striatum VOI, contralateral vehicle-injected striatum as reference",0.14 ± 0.1
same,M1 %ID,"[1]; mouse brain, 5 min after injection, metabolite 1",0.4* %ID per g brain tissue
same,M1 %,"[1]; mouse brain, 5 min after injection, metabolite 1, % of radioactivity",5%
same,M3 %,[1]; [8],2%
same,M3 %ID,[1]; [8],0.2* %ID per g brain tissue
same,P %,[1]; [4],93%
same,P %ID,[1]; [4],8.8 %ID per g brain tissue
same,M1 %,[1]; [9],5%
same,M1 %ID,[1]; [9],0.4* %ID per g brain tissue
same,M3 %,[1]; [10],8%
same,M3 %ID,[1]; [10],0.7* %ID per g brain tissue
same,P %,[1]; [5],87%
same,P %ID,[1]; [5],7.2 %ID per g brain tissue
same,M1 %,[1]; [11],21%
same,M1 %ID,[1]; [11],0.6^# %ID per plasma in 1 mL blood
same,M3 %,[1]; [12],6%
same,M3 %ID,[1]; [12],0.1^# %ID per plasma in 1 mL blood
same,M2* %,[1]; [12],34%
same,M2* %ID,[1]; [12],0.9^# %ID per plasma in 1 mL blood
same,P %,[1]; [6],39%
same,P %ID,[1]; [6],1.0^# %ID per plasma in 1 mL blood
same,M1 %,[1]; [13],30%
same,M1 %ID,[1]; [13],0.8^# %ID per plasma in 1 mL blood
same,M3 %,[1]; [14],4%
same,M3 %ID,[1]; [14],0.1^# %ID per plasma in 1 mL blood
same,M2* %,[1]; [14],36%
same,M2* %ID,[1]; [14],1.0^# %ID per plasma in 1 mL blood
same,P %,[1]; [7],30%
same,P %ID,[1]; [7],0.8^# %ID per plasma in 1 mL blood
same,peak standardized uptake value (SUV) in brain,[2],1.7
